Values joined by “and” are separate entries in the source; they are usually repeats but may differ in a detail not shown here. Equal values may be shown once.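 The compound was tested at five concentrations on cells cultured in 96-well plates, with a 48-hour exposure period. Abbreviation: GI50, concentration required for 50% inhibition of growth. The concentration for full growth arrest is given as TGI.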
What was measured:
Experiment in all cases: NCI anticancer screen, dose series, 48 h
DU-145 prostate = tested on: DU-145 prostate
SF-539 CNS = tested on: SF-539 CNS
SK-MEL-5 melanoma = tested on: SK-MEL-5 melanoma
KM12 colon = tested on: KM12 colon
UACC-62 melanoma = tested on: UACC-62 melanoma
SF-295 CNS = tested on: SF-295 CNS
MDA-N = tested on: MDA-N
786-0 renal = tested on: 786-0 renal
OVCAR-8 ovarian = tested on: OVCAR-8 ovarian
SNB-19 CNS = tested on: SNB-19 CNS
RXF 393 renal = tested on: RXF 393 renal
OVCAR-3 ovarian = tested on: OVCAR-3 ovarian
IGROV1 ovarian = tested on: IGROV1 ovarian

Row | Compound | TGI (DU-145 prostate) [µM] | TGI (SF-539 CNS) [µM] | TGI (SK-MEL-5 melanoma) [µM] | TGI (KM12 colon) [µM] | TGI (UACC-62 melanoma) [µM] | TGI (SF-295 CNS) [µM] | TGI (MDA-N) [µM] | TGI (786-0 renal) [µM] | TGI (OVCAR-8 ovarian) [µM] | TGI (SNB-19 CNS) [µM] | TGI (RXF 393 renal) [µM] | TGI (OVCAR-3 ovarian) [µM] | TGI (IGROV1 ovarian) [µM] | GI50 (SK-MEL-5 melanoma) [µM] | GI50 (UACC-62 melanoma) | GI50 (SF-295 CNS) [µM] | GI50 (MDA-N) [µM] | GI50 (OVCAR-8 ovarian) [µM] | GI50 (OVCAR-3 ovarian)
1 | COC(=O)[C@H](Cc1ccc(OC(C)(C)C)cc1)N[C@H](C)C(=O)N[C@@H](Cc1ccccc1)C(=O)OCc1ccccc1 | > 100 | > 100 | > 100 | > 100 | > 100 | > 100 | > 100 | > 100 | > 100 | > 100 | > 100 | > 100 | > 100 | – | – | – | – | – | –
2 | O=C(O)CCCc1ccc2ccccc2c1 | > 100 | > 100 | > 100 | > 100 | > 100 | > 100 | > 100 | > 100 | > 100 | > 100 | > 100 | > 100 | > 100 | – | – | – | – | – | –
3 | CN1CCN(c2ccc3nc(-c4ccc5nc(-c6ccc(O)cc6)[nH]c5c4)[nH]c3c2)CC1 | 526 | 237 | 158 | 678 | 118 | 678 | 354 | 941 | 539 | 909 | 529 | 43.1 | 436 | 97.9 | 14 µM and 86.9 µM and 28 µM | 380 | 8.77 | 173 | 13.5 µM and 59.5 µM and 10.1 µM
4 | CCOC(=O)C(=O)/C(=C/N1C(=O)CC(=O)NC1=S)C(=O)OCC | > 100 | > 100 | > 100 | > 100 | > 100 | > 100 | > 100 | > 100 | > 100 | > 100 | > 100 | > 60.2 | > 100 | – | – | – | – | – | –
5 | CCN(CC)CCNc1ccc2nnn3c4ccc(O)cc4c(=O)c1c23 | 27.6 | 18.4 | 15.7 | 12.8 | 22.1 | 17.8 | 17.5 | 15.6 | 17.5 | 22.2 | 5.96 | 22.7 | 20.5 | – | – | – | – | – | –
6 | CCOC(=O)C(C(=S)SC)c1nn2c(=O)cc(C)nc2s1 (stereo not given) | 32.8 | 36 | 35.1 | 65.3 | 47.6 | 44.6 | 29.8 | 36.1 | 35.5 | 43.7 | 39.8 | 34.8 | 38.1 | – | – | – | – | – | –
7 | CCOc1cc2oc(C)cc(=O)c2c(OC)c1C=Nc1ccc(Cn2c(C)nc3ccccc32)cc1 | > 100 | > 100 | > 100 | > 100 | > 100 | > 100 | > 100 | > 100 | > 100 | > 100 | > 100 | > 100 | > 100 | – | – | – | – | – | –
8 | COC(=O)[C@H](CC(C)C)Nc1c(O)c2c(c(O)c1Cl)C(=O)C=CC2=O | > 10 | > 10 | > 10 | > 10 | > 10 | > 10 | > 10 | > 10 | > 10 | > 10 | > 10 | 6 | > 10 | – | – | – | – | – | –

Reference: PubChem BioAssay (NCI)
